Test results: patent US20210393636A1, “TREATMENT OF CNS AND DEVELOPMENTAL DISORDERS USING HIGH DOSE 5-FORMYL-(6S)-TETRAHYDROFOLATE” (priority 2019, published 2021)

Assays:
[1] = Total folates in serum 24 h after oral administration of folate forms (Example 2); format: in vivo, rats; parameters: Total Folates in Serum (total 5-MTHF D- and L- plus folic acid): unit not given here; details: 4 mg/kg oral, 24 h
Procedure: (§1) This study evaluated the difference in folate absorption in non-pregnant rats, pregnant rats, pregnant rats injected with a control antibody, and pregnant rats injected with antibody to the folate receptor alpha. Eight (8) rats were assigned to each group for a total of thirty-two (32) rats. Two rats within each group were administered a single oral dose of PGA, 5-methyl-(6S)-THF, folinic acid or 5-formyl-(6S)-THF as a liquid solution and sacrificed at 24-hours to evaluate folate absorption patterns. The total amount of each form of folate administered to each rat was 4 mg/kg.
Serum was withdrawn immediately before the rat was sacrificed. For extraction of folate from serum, an aliquot of the serum was diluted in 3 volumes of phosphate buffer pH 5.5, placed in a boiling water bath for 10 min, cooled, the protein precipitate separated by centrifugation and the clear supernatant was assayed for folate concentration.

[2] = Tissue distribution of folates 24 h after oral administration of folate forms (Example 2); format: in vivo, rats; details: for Total 5-MTHF + PGA in Brain: derived from cortex and cerebellum
Procedure: as §1
Additional analyses were performed in various tissues of the pregnant and non-pregnant rats. For tissues other than serum, each tissue was collected, weighed and stored at −20 C. For the folate assay each tissue was suspended in 3 volumes of phosphate buffer containing 2% ascorbic acid pH 7.4 and homogenized using a polytron probe. An aliquot of this homogenate was diluted 10 fold in PO4 buffer PH 5.5 containing 0.2% ascorbic acid, in a glass tube, sealed and placed in a boiling water bath for 10 min. The tube was cooled to room temperature, precipitate removed by centrifugation and the clear supernatant assayed for folate. Brain concentrations were derived from cortex and cerebellum.

[3] = Tissue distribution of folates 24 h after oral administration of folate forms to rat pups, with and without FR Ab (Example 3); format: in vivo; details: for Folate (mean), Cerebellum / Folate (mean), Cerebrum / Folate (mean), Kidney / Folate (mean), Liver: PND 21 rat pups, 4 mg/kg oral, 24 h
Procedure: To determine tissue distribution of orally administered folate forms in young rat pups and study the effect of folate receptor antibodies on this distribution. PND 21 rat pups weighing about 50 g were administered folate forms orally at a dose of 4 mg/kg. Animals were euthanized after 24 h and tissues collected for analyzing total methylfolate in each tissue to provide a measure of normal distribution.

[4] = Folate absorption in serum after single high-dose oral administration of different folates (Example 1)
Procedure: For this study, 4 mg/kg folate was administered as a single dose to 250-300 g male Wistar rats. […] For each form of folate 4 time points of 30 min, 1 h, 2 h and 4 h were evaluated. For each time point 2 rats were used. The folate form dissolved in 0.5 ml buffered saline was administered orally using a blunt needle attached to a 1 ml syringe. The rats were euthanized by CO2 inhalation.
Blood was drawn cardiac puncture, allowed to clot for 30 min, serum separated, diluted in equal volume of 4% ascorbate pH 7.2 and kept frozen at −20 C. Folate forms in the serum was determined by HPLC and the peaks were quantified by comparing to known standards as described below.
Folate standards (5-MTHF, FA, THF and Formyl-THF) and 13C-labeled stable isotope internal standards (13C5-5-MTHF, 13C5-FA and 13C-Formyl-THF) were obtained from Schircks Laboratories (Switzerland). Formic acid, ascorbic acid and dithiothreitol (DTT) were obtained from Fluka and Optima LC-MS grade methanol from Fisher Scientific. Stock standards for each folate metabolite and internal standards were prepared as 1 mmol/L solutions in water containing 2 mg/mL ascorbic acid and stored at −80° C. Microtiter plates used for were purchased from NUNC.
Liquid chromatography electrospray ionization mass spectrometry (LC-ESI-MS/MS) analysis of plasma 5-MTHF, FA, THF, Formyl-THF was performed on a Sciex 5500QTRAP mass spectrometer (Foster City, Calif., USA) coupled with a Shimadzu ultra-high pressure Nexera chromatograph system (Kyoto, Japan). The MS/MS experiments were performed under positive electrospray ionization (+ESI) with multiple-reaction monitoring (MRM) using a Turbolon Spray electrospray source operating at a voltage of 5.5 kV and desolvation temperature of 500° C. The calibration curve was prepared in water containing 2 mg/mL ascorbic acid over a range of 12.5-400 nmol/L for each folate analyte.
Sample preparation involved combining 50 µl of blank, standard, control or sample with 10μ1 62.5 mM dithiothreitol, 20 mg/ml ascorbic acid and 2.5 μM 13C5-5-MTHF, 13C5-FA, 13C-Formyl-THF in 1.5 mL Eppendorf tubes, mixed by vortex and incubated for 10 minutes at room temperature in the dark. Next, samples were deproteinized with 5 volumes of methanol containing 2 mg/ml of ascorbic acid and vortexed and centrifuged at 14800 rpm for 10 minutes. Supernatant was loaded in a 96-well microtiter plate for analysis. The samples were analyzed following injection of 10 μL of extract on a Synergi Hydro 4μ 150×3 mm with a 4×2 mm SecurityGuard column (Phenomenex, Calif., USA) maintained at 40° C. (Phenomenex) and eluted in a gradient with buffer A (100% water with 0.1% formic acid) and buffer B (100% Methanol with 0.1% formic acid). The flow rate was 0.5 mL/min, with a gradient over a total run time of 6 min: 0.0-2.0 min, 0-100% B; 2.5 min, 100% B; 2.6-6.0 min, 0% B.
Total analytical analysis, including column re-equilibration, was 6 minutes. Eluent flow from the column was diverted to waste at the beginning and end of each run and was only directed to the source for the period from 1.5-3.5 minutes. The LC-MS/MS data was acquired and processed using Analyst 1.5.2 software (Sciex).
Values reported include both D- and L-forms.

[5] = 25 mg liquid elixir, oral; cited from earlier work
[6] = parenteral 5 mg twice weekly or oral 0.5-20 mg/kg/day; cited from earlier work
[7] = non-pregnant rats, without antibody, 4 mg/kg oral, 24 h
[8] = pregnant rats, + Control IgG, 4 mg/kg oral, 24 h
[9] = pregnant rats, + FRAb, 4 mg/kg oral, 24 h
[10] = pregnant rats, w/o IgG, 4 mg/kg oral, 24 h
[11] = serum, 4 mg/kg single oral dose, 0.5 hr
[12] = serum, 4 mg/kg single oral dose, 1 hr
[13] = serum, 4 mg/kg single oral dose, 2 hr
[14] = serum, 4 mg/kg single oral dose, 4 hr
[15] = male, Wistar, rat, in vivo, po, 4 mg/kg
[16] = male, Wistar, rat, in vivo, po, 4 mg/kg, 0.5 h
[17] = male, Wistar, rat, in vivo, po, 4 mg/kg, 1 h
[18] = male, Wistar, rat, in vivo, po, 4 mg/kg, 2 h
[19] = male, Wistar, rat, in vivo, po, 4 mg/kg, 4 h

SMILES: CN1c2c(nc(N)[nH]c2=O)NC[C@@H]1CNc1ccc(C(=O)N[C@@H](CCC(=O)O)C(=O)O)cc1 [5-methyl-(6S)-THF, 5-methyl-(6S)-tetrahydrofolate]
- Total Folates in Serum (total 5-MTHF D- and L- plus folic acid) ([1]; Non-pregnant rats): 60.0
- Total Folates in Serum (total 5-MTHF D- and L- plus folic acid) ([1]; pregnant rats, Control Ab + Form): 143.3
- Total Folates in Serum (total 5-MTHF D- and L- plus folic acid) ([1]; pregnant rats, FRAb + Form): 190.9
- Total Folates in Serum (total 5-MTHF D- and L- plus folic acid) ([1]; pregnant rats, Form Only): 85.5
- Total 5-MTHF + PGA in Cerebellum [2, 7]: 1.9
- Total 5-MTHF + PGA in Cortex [2, 7]: 1.9
- Total 5-MTHF + PGA in Kidney [2, 7]: 36.4
- Total 5-MTHF + PGA in Liver [2, 7]: 75.4
- Total 5-MTHF + PGA in Ovary [2, 7]: 7.2
- Total 5-MTHF + PGA in Brain [2, 7]: 1.9
- Total 5-MTHF + PGA in Embryo [2, 8]: 2.0 ng/mg
- Total 5-MTHF + PGA in Kidney [2, 8]: 20.3 ng/mg
- Total 5-MTHF + PGA in Liver [2, 8]: 148.5 ng/mg
- Total 5-MTHF + PGA in Ovary [2, 8]: 14.9 ng/mg
- Total 5-MTHF + PGA in Placenta [2, 8]: 2.3 ng/mg
- Total 5-MTHF + PGA in Brain [2, 8]: 3.2 ng/mg
- Total 5-MTHF + PGA in Embryo [2, 9]: 1.9 ng/mg
- Total 5-MTHF + PGA in Kidney [2, 9]: 64.9 ng/mg
- Total 5-MTHF + PGA in Liver [2, 9]: 148.0 ng/mg
- Total 5-MTHF + PGA in Ovary [2, 9]: 27.0 ng/mg
- Total 5-MTHF + PGA in Placenta [2, 9]: 2.1 ng/mg
- Total 5-MTHF + PGA in Brain [2, 9]: 3.7 ng/mg
- Total 5-MTHF + PGA in Embryo [2, 10]: 4.6 ng/mg
- Total 5-MTHF + PGA in Kidney [2, 10]: 25.5 ng/mg
- Total 5-MTHF + PGA in Liver [2, 10]: 58.6 ng/mg
- Total 5-MTHF + PGA in Ovary [2, 10]: 6.6 ng/mg
- Total 5-MTHF + PGA in Placenta [2, 10]: 6.4 ng/mg
- Total 5-MTHF + PGA in Brain [2, 10]: 2.4 ng/mg
- Folate (mean), Cerebellum ([3]; + FRAb (100 ug IP 24 h prior)): 60.7 ng/mg
- Folate (mean), Cerebrum ([3]; + FRAb (100 ug IP 24 h prior)): 3.8 ng/mg
- Folate (mean), Kidney ([3]; + FRAb (100 ug IP 24 h prior)): 116.4 ng/mg
- Folate (mean), Liver ([3]; + FRAb (100 ug IP 24 h prior)): 250.34 ng/mg
- Folate (mean), Cerebellum ([3]; no FRAb): 26.1 ng/mg
- Folate (mean), Cerebrum ([3]; no FRAb): 4.3 ng/mg
- Folate (mean), Kidney ([3]; no FRAb): 86.6 ng/mg
- Folate (mean), Liver ([3]; no FRAb): 158.5 ng/mg
- THF [4, 11]: 4.4 ng/mL
- Total Uptake [4, 11]: 188.5 ng/mL
- 5-MTHF ([4]; serum, 4 mg/kg single oral dose, 0.5 hr, D- and L-forms): 184.1 ng/mL
- THF [4, 12]: 9.0 ng/mL
- Total Uptake [4, 12]: 223.8 ng/mL
- 5-MTHF ([4]; serum, 4 mg/kg single oral dose, 1 hr, D- and L-forms): 214.8 ng/mL
- THF [4, 13]: 8.7 ng/mL
- Total Uptake [4, 13]: 258.4 ng/mL
- 5-MTHF ([4]; serum, 4 mg/kg single oral dose, 2 hr, D- and L-forms): 249.7 ng/mL
- 5-FoTHF [4, 14]: 5.1 ng/mL
- THF [4, 14]: 19.6 ng/mL
- Total Uptake [4, 14]: 216.2 ng/mL
- 5-MTHF ([4]; serum, 4 mg/kg single oral dose, 4 hr, D- and L-forms): 191.4 ng/mL

SMILES: Nc1nc2c(c(=O)[nH]1)N(C=O)C(CNc1ccc(C(=O)N[C@@H](CCC(=O)O)C(=O)O)cc1)CN2 (stereo partly drawn) [Folinic acid, 5-formyl-tetrahydrofolate]
- AUC0-24h, 5-Formyl-THF (Strep. faecalis activity) [5]: 135 ± 80 ng·h/mL
- AUC0-24h, 5-Methyl-THF (arithmetic difference) [5]: 1929 ± 542 ng·h/mL
- AUC0-24h, Total folates (l-casei activity) [5]: 2063 ± 587 ng·h/mL
- AUC0-inf, 5-Formyl-THF (Strep. faecalis activity) [5]: 140 ± 81 ng·h/mL
- AUC0-inf, 5-Methyl-THF (arithmetic difference) [5]: 2012 ± 567 ng·h/mL
- AUC0-inf, Total folates (l-casei activity) [5]: 2149 ± 612 ng·h/mL
- Cmax, 5-Formyl-THF (Strep. faecalis activity) [5]: 51 ± 50 ng/mL
- Cmax, 5-Methyl-THF (arithmetic difference) [5]: 367 ± 87 ng/mL
- Cmax, Total folates (l-casei activity) [5]: 393 ± 96 ng/mL
- t1/2, 5-Formyl-THF (Strep. faecalis activity) [5]: 9.5 ± 4.6 h
- t1/2, 5-Methyl-THF (arithmetic difference) [5]: 6.0 ± 1.9 h
- t1/2, Total folates (l-casei activity) [5]: 6.0 ± 1.9 h
- tmax, 5-Formyl-THF (Strep. faecalis activity) [5]: 73 ± 35 min
- tmax, 5-Methyl-THF (arithmetic difference) [5]: 142 ± 29 min
- tmax, Total folates (l-casei activity) [5]: 140 ± 32 min
- tissue uptake of the unnatural D-isomer in ovary, brain, cerebellum and cortex ([2]; non-pregnant rats without folate receptor antibody): significant
- change of folates in the brain on antibody administration ([3]; antibody-treated pups vs pups without antibody): an increase in folates in the brain is observed
- concentration at 0.5 h [4, 15]: 80.1 ng/mL
- concentration at 1 h [4, 15]: 55.9 ng/mL
- concentration at 2 h [4, 15]: 27.5 ng/mL
- concentration at 4 h [4, 15]: 21.7 ng/mL
- 5-MTHF [4, 16]: 109.7 ng/mL
- THF [4, 16]: 5.5 ng/mL
- Total Uptake [4, 16]: 195.3 ng/mL
- 5-MTHF [4, 17]: 115.7 ng/mL
- THF [4, 17]: 5.9 ng/mL
- Total Uptake [4, 17]: 177.4 ng/mL
- 5-MTHF [4, 18]: 103.3 ng/mL
- THF [4, 18]: 5.1 ng/mL
- Total Uptake [4, 18]: 135.9 ng/mL
- 5-MTHF [4, 19]: 120.7 ng/mL
- THF [4, 19]: 7.2 ng/mL
- Total Uptake [4, 19]: 149.6 ng/mL
- THF concentration relative to an equal dose of 5-formyl-6S-THF ([4]; rat, in vivo, po, 4 mg/kg): less than one fifth
- tolerability [6]: tolerated
